Experimental data reported in PubChem BioAssay AID1963963 (Molecular Pharmacology Branch, DTP, NCI, 2024).
Several values for one entry are separate records, joined by “and”; a condition that tells them apart may be missing. Identical values can stand only once.

System: 958667-338-R-J2-PDC tumor spheroids viability
Test: Anticancer human tumor 958667-338-R-J2-PDC patient-derived colon adenocarcinoma cell line growth inhibition [PI3K]
Settings: spheroids with HUVEC and MSC; for viability, T/C: stronger effect = lower value
Description: Combinatorial screen of targeted agents with the PI3K inhibitors inavolisib, alpelisib, duvelisib, and copanlisib in multi-cell type tumor spheroids
A high-throughput screen of multi-cell type tumor spheroids was designed to identify active combinations of targeted small molecules and PI3K pathway inhibitors. Complex spheroids include a stromal component modeled by human endothelial cells (HUVEC) and fibroblasts modeled by human mesenchymal stem cells (MSCs). The concentration ranges selected for each drug and investigational agent were based upon clinically achievable concentrations if the clinical Cmax of the agent was known.
Compounds. The drugs and investigational agents: inavolisib (NSC800729), alpelisib (NSC765974), duvelisib (NSC772469), copanlisib (NSC816437), ipatasertib (NSC767898), afuresertib (NSC778305), talazoparib (NSC767125), sapanisertib (NSC764658), selumetinib (NSC741078), tovorafenib (DAY101, NSC766906), vemurafenib (NSC761431), ravoxertinib (NSC781343), sotorasib (NSC818433), MRTX1133 (NSC 836407), abemaciclib (NSC 768073), palbociclib (NSC758247), venetoclax (NSC 766270), SY5609 (NSC837396), enzalutamide (NSC755605), and darolutamide (NSC825331), were obtained from the National Cancer Institute (NCI) Developmental Therapeutics Program Chemical Repository. The FDA-approved anticancer drug set is available from the NCI Developmental Therapeutics Program. […] The stock solutions were prepared in dimethyl sulfoxide (DMSO, Sigma-Aldrich, St. Louis, MO, cat. D2650) at 800-fold the tested concentration and stored at -70 degrees C prior to their use. All drugs and investigational agents were tested over a range starting from a high concentration at or near the clinical Cmax and decreasing in half-log increments. If the clinical Cmax for an agent had not been determined, the highest concentration tested was 10 microM.
Cell Culture. All cells were maintained in an incubator at 37 degrees C and 5% CO2 with 95% humidity. The PDC lines were cultured according to standard operating procedures established by the NCI PDMR (https://pdmr.cancer.gov/sops/default.htm). All PDCs were thawed and cultured in Matrigel-coated flasks prepared with a working solution of 1X Ham's F-12 nutrient mix, without supplementation (Invitrogen, Waltham, MA, cat. 11765054), 100 U/mL penicillin-streptomycin (Invitrogen, cat. 15140122), and 2.5% Matrigel (Corning Inc., Corning, NY, cat. 354248) for the first three passages. The 354836-022-R-J1-PDC, 475296-252-R-J1-PDC, and 997726-040-R-J2-PDC lines were cultured in 6A media, which includes advanced DMEM/F-12 (Thermo Fisher Scientific, cat. 12634028), 10 mM HEPES (Thermo Fisher Scientific, cat. 15630080), 1X GlutaMAX supplement (Thermo Fisher Scientific, cat. 35050061), 0.1 mg/mL primocin (InvivoGen, San Diego, CA, cat. ant-pm-2), 10% defined fetal bovine serum, heat inactivated (HyClone Laboratories Inc., Logan, UT, cat. SH30070.03HI), 50% L-WRN conditioned media (ATCC, cat. CRL-3276), 1.25 mM N-Acetyl-L-cysteine (Sigma-Aldrich, cat. A9165), 10 mM nicotinamide (Sigma-Aldrich, cat. N0636), 1X B-27 supplement (Thermo Fisher Scientific, cat. 17504044), 1X N-2 supplement (Thermo Fisher Scientific, cat. 17502048), and 10 microM Y-27632 dihydrochloride (Tocris Bioscience, Bristol, United Kingdom, cat. 1254). The 624824-186-R-J2-PDC line was cultured in 6C/Colon 1B media, which includes all 6A media components plus 50 ng/mL human EGF recombinant protein (Thermo Fisher Scientific, cat. PHG0311). […]
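Note: spheroids exposed to compounds for seven days before readout.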

| Structure (SMILES) | viability, T/C (compound 0.1 µM) | viability, T/C (compound 0.316 µM) | viability, T/C (compound 1 µM) | viability, T/C (compound 3.16 µM) | viability, T/C (compound 10 µM) | IC50 (curve of compound) | viability, T/C (compound 0.00316 µM) | viability, T/C (compound 0.0316 µM) | further results |
| --- | --- | --- | --- | --- | --- | --- | --- | --- | --- |
| CCCS(=O)(=O)Nc1ccc(F)c(C(=O)c2c[nH]c3ncc(-c4ccc(Cl)cc4)cc23)c1F | 94.2% and 87.7% and 113% (2×) | 107% [middle of 4 runs] | 114% [middle of 4 runs] | 116% [middle of 4 runs] | 10.9% [middle of 4 runs] | 6.27 µM [middle of 4 runs] | – | – | – |
| CCN1CCN(Cc2ccc(Nc3ncc(F)c(-c4cc(F)c5nc(C)n(C(C)C)c5c4)n3)nc2)CC1 | 72.1% and 75.9% and 98.9% | 78.8% and 76.1% and 79.7% | 74.5% and 70.1% and 72.5% | – | – | > 1 µM | 108% and 102% and 109% | 91% and 87.5% and 98.1% | viability, T/C (compound 0.01 µM): 86.7% and 90.8% and 95.2% |
| CNC(=O)c1ccc(N2C(=S)N(c3ccc(C#N)c(C(F)(F)F)c3)C(=O)C2(C)C)cc1F | 97% [middle of 4 runs] | – | 112% and 103% (2×) and 100% | 95.8% and 104% and 124% (2×) | 103% (2×) and 115% and 88.7% | > 10 µM | – | 110% [middle of 4 runs] | – |
| COc1c(OCCCN2CCOCC2)ccc2c3n(c(=NC(=O)c4cnc(N)nc4)nc12)CCN3 | 54% [middle of 8 runs] | 38.8% [middle of 8 runs] | 18.2% [middle of 8 runs] | – | – | – | 92.6% [middle of 8 runs] | 71.9% [middle of 8 runs] | IC50 (compound alone, run of 06/13/2023): 147 nM [middle of 8 runs] |
| C[C@@H](NC(=O)c1ncnc(N)c1Cl)c1ncc(C(=O)Nc2cc(C(F)(F)F)c(Cl)cn2)s1 | 103% [middle of 4 runs] | 106% [middle of 4 runs] | – | 95.3% [middle of 4 runs] | 98.6% [middle of 4 runs] | > 10 µM | – | 104% [middle of 4 runs] | – |
| Cc1nc(NC(=O)N2CCCC2C(N)=O)sc1-c1ccnc(C(C)(C)C(F)(F)F)c1 (configuration not stated) | – | – | – | 71.5% [middle of 8 runs] | 66% [middle of 8 runs] | – | – | – | IC50 (compound alone, run of 06/12/2023): > 10 µM |
| Cn1cnc2c(F)c(Nc3ccc(Br)cc3Cl)c(C(=O)NOCCO)cc21 | – | – | – | – | – | 377 nM [middle of 4 runs] | – | – | viability, T/C (compound 0.00949 µM): 96.5% [middle of 4 runs]; viability, T/C (compound 0.0949 µM): 85.5% [middle of 4 runs]; viability, T/C (compound 0.3 µM): 54.2% [middle of 4 runs]; viability, T/C (compound 0.949 µM): 35.9% [middle of 4 runs]; viability, T/C (compound 3 µM): 20.5% [middle of 4 runs] |
| Cn1ncc(Cl)c1-c1cc(C(=O)NC(CN)Cc2cccc(F)c2)sc1Cl (configuration not stated) | 92.4% [middle of 4 runs] | 91.9% [middle of 4 runs] | 74.7% [middle of 4 runs] | 53.8% [middle of 4 runs] | 39.3% [middle of 4 runs] | – | – | 94.3% [middle of 4 runs] | – |
| Cn1nccc1Nc1nccc(-c2ccn(C(CO)c3ccc(Cl)c(F)c3)c(=O)c2)n1 (configuration not stated) | – | 95.4% [middle of 4 runs] | 86.6% [middle of 4 runs] | 89.5% [middle of 4 runs] | – | > 10 µM | – | 102% [middle of 4 runs] | – |
| Cn1ncnc1[C@H]1c2n[nH]c(=O)c3cc(F)cc(c23)N[C@@H]1c1ccc(F)cc1 | 99.1% [middle of 4 runs] | – | – | – | – | > 0.1 µM | 97.5% [middle of 4 runs] | 103% [middle of 4 runs] | viability, T/C (compound 0.000316 µM): 115% [middle of 4 runs]; viability, T/C (compound 0.001 µM): 110% [middle of 4 runs] |
